The text below walks through data of PMC8213730, “α-Helical peptidic scaffolds to target α-synuclein toxic species with nanomolar affinity” (Nature Communications, 2021).

The target in assay [1] is T1, α-synuclein (αS) type B* oligomers (Homo sapiens, UniProt P37840, N122C).
T1 construct: made in house; host or cells: Escherichia coli BL21 (DE3), pET21a
The experiment in a line: dcFCCS binding of labelled peptide to αS type B* oligomers. As for the experimental part: (§1) This variant was expressed and purified as described above but including 5 mM DTT in all purification steps. The protein was labeled with maleimide-modified Alexa Fluor 488 (AF488) (Invitrogen, Carlsbad, USA) for 15–20 h at 4 °C in the dark. After quenching the reaction with 10 mM DTT, free unreacted dye in the protein solution was subsequently separated using a P10 desalting column (GE Healthcare, Waukesha, USA), and the labeled protein solution was flash frozen with liquid nitrogen and stored at −80 °C. […] The same labeling and purification strategy were followed as for αS, although in this case the unreacted free dye was removed from the protein solution using a polyacrylamide desalting column (Thermo Fisher Scientific, Waltham, USA).
(§2) For the isolation of type B* oligomers purified αS was dialyzed against Milli-Q water and lyophilized for 48 h in aliquots of 6 mg. The aliquots were resuspended in 500 μL of PBS pH 7.4 to a final concentration of ca. 800 μM, filtered through 0.22 μm filters and incubated at 37 °C without agitation for 20–24 h.

The target of assay [2] is T2, α-synuclein (αS) type A* oligomers (Homo sapiens, UniProt P37840, N122C).
T2 construct: made in house; host or cells: Escherichia coli BL21 (DE3), pET21a
The assay is described as follows: dcFCCS binding of labelled peptide to αS type A* oligomers.

Assay [3] deals with T3, α-synuclein (αS) sonicated fibrils (Homo sapiens, UniProt P37840, N122C).
T3 construct: made in house; host or cells: Escherichia coli BL21 (DE3), pET21a
The assay is described as follows: dcFCCS binding of labelled peptide to αS sonicated fibrils. As for the experimental part: as §1, §2

Assay [4] deals with α-synuclein (αS) amyloid aggregation. The experiment in a line: αS amyloid aggregation kinetics by thioflavin-T fluorescence. It is filed as biochemical. The settings on record: 70 μM αS with 35, 14, 7 (3.5) μM peptide, PBS, 37 °C. Here is the method: αS amyloid aggregation was monitored in a 96 wells plate (non-treated) (Sarstedt, Germany) containing Teflon polyballs (1/8′′ diameter) (Polysciences Europe GmbH, Eppelheim, Germany) as described by Pujols and coworkers. Each well contained 150 μL solutions of 70 μM αS in PBS buffer with 40 μM thioflavin-T and the corresponding concentration of peptide. Plates were incubated at 37 °C, 100 rpm in an orbital culture shaker Max-Q 4000 (Thermo Fisher Scientific, Waltham, USA). Aggregation was analyzed every 2 h using a Victor3.0 Multilabel Reader Software-PerkinElmer 2030. (PerkinElmer, Waltham, USA). End-point measurements were performed after 32 h of incubation. Fluorescence intensity was measured in triplicate by exciting with a 430–450 nm filter and collecting the emission with a 480–510 nm filter. The resulting kinetics were normalized to the maximum fluorescence of the αS control (untreated).

The target in assay [5] is α-synuclein sonicated amyloid fibrils (AF488-labelled αS N122C) (UniProt P37840). The experiment in a line: dual-color fluorescence cross-correlation spectroscopy (dcFCCS).
Assay [6] concerns the target α-synuclein type B* oligomers (AF488-labelled αS N122C) (UniProt P37840). Described as above.
The target in assay [7] is α-synuclein type A* oligomers (AF488-labelled αS N122C) (UniProt P37840). The assay is described as above.
Assay [8] deals with α-synuclein N122C labelled with Alexa Fluor 488, monomer (UniProt P37840). The experiment in a line: FCS molecular brightness; sonicated fibril sample; brightness of the aggregates compared with that of the αS monomer; average number of αS molecules per aggregate.

In the case of `CC[C@H](C)[C@H](NC(=O)[C@H](CCCCN)NC(=O)[C@H](CCC(=O)O)NC(=O)[C@H](CCCCN)NC(=O)[C@H](CO)NC(=O)[C@H](CCCCN)NC(=O)[C@H](CCCNC(=N)N)NC(=O)[C@H](Cc1ccccc1)NC(=O)[C@H](Cc1ccccc1)NC(=O)[C@H](CC(=O)O)NC(=O)CNC(=O)[C@H](CC(C)C)NC(=O)[C@@H](N)CC(C)C)C(=O)NCC(=O)N[C@@H](CCCCN)C(=O)N[C@@H](CCC(=O)O)C(=O)N[C@@H](Cc1ccccc1)C(=O)N[C@@H](CCCCN)C(=O)N[C@@H](CCCNC(=N)N)C(=O)N[C@H](C(=O)N[C@H](C(=O)N[C@@H](CCC(N)=O)C(=O)N[C@@H](CCCNC(=N)N)C(=O)N[C@H](C(=O)N[C@@H](CCCCN)C(=O)N[C@@H](CC(=O)O)C(=O)N[C@@H](Cc1ccccc1)C(=O)N[C@@H](CC(C)C)C(=O)N[C@@H](CCCNC(=N)N)C(=O)N[C@@H](CC(N)=O)C(=O)N[C@@H](CC(C)C)C(=O)N[C@H](C(=O)N1CCC[C@H]1C(=O)N[C@@H](CCCNC(=N)N)C(=O)N[C@H](C(=O)N[C@@H](CCC(=O)O)C(=O)N[C@@H](CO)C(=O)O)[C@@H](C)O)C(C)C)[C@@H](C)CC)C(C)C)[C@@H](C)CC` [LL-37], the Kd amounted to 3.62 nM in assay [1], 1.92 nM in assay [2] and 5.14 nM in assay [3].
For “LELLAKLLKLLKDLLGKLL [All_Leu19, variant of All-Leu devoid of the last three C-terminal residues]”, the “anti-aggregation (inhibitory) activity, Th-T titration” value in assay [4] was “retained the inhibitory activity”.
LELLEELLKLLEDLLKKLL [Anionic_scaffold]: the “anti-aggregation (inhibitory) activity, Th-T titration” value in assay [4] is recorded as “does not inhibit”.
In the case of “LELLEKLLKLLKDLLKKLL [Scaffold_19, only Leu, Asp, Glu and Lys]”, the “anti-aggregation (inhibitory) activity, Th-T titration” value in assay [4] is “same anti-aggregation activity than the parental variant”.
For the molecule “LL-37 with a single engineered N-terminal cysteine labelled with Atto647N (peptide)”, the stoichiometry N (binding sites per aggregate) was found to be 181 in assay [5], 64 in assay [6] and 3 in assay [7].
In turn, “α-synuclein N122C labelled with Alexa Fluor 488, monomer (from UniProt P37840 1-140) (natural protein)” displayed a stoichiometry N (αS molecules per aggregate) in assay [8] of 107.

By Kd is commonly meant a measure of binding affinity in units of concentration.
